Test results published in ChEMBL document CHEMBL1201862, “PubChem BioAssay data set” (2004).
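1) Cells in 96-well plates. 2) Compound, 48 h, 5 concentrations. 3) Linear interpolation between surrounding doses. 4) Unreached endpoint = highest concentration. Abbreviation: GI50, concentration required for 50% inhibition of growth.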 Activity calls are given as the source filed them. No stated cut-off is given here; in the data, active = GI50 up to about 1.1 µM and inactive = higher. Where a SMILES comes first, the peptide text is derived from it. The star is where a group is joined. Cbz = O=C(OCc1ccccc1)*

Key:
Experiment in all cases: NCI-60 cell line screen, 48 h
NCI-H460 = test system: NCI-H460
SR = test system: SR
ACHN = test system: ACHN
CAKI-1 = test system: CAKI-1
K562 = test system: K562
OVCAR-4 = test system: OVCAR-4
SK-OV-3 = test system: SK-OV-3
U-251 = test system: U-251
SNB-75 = test system: SNB-75
NCI-H522 = test system: NCI-H522
HOP-62 = test system: HOP-62
BT-549 = test system: BT-549
RXF 393 = test system: RXF 393
SK-MEL-2 = test system: SK-MEL-2
EKVX = test system: EKVX
COLO 205 = test system: COLO 205
Malme-3M = test system: Malme-3M
SN12C = test system: SN12C
SK-MEL-28 = test system: SK-MEL-28
DU-145 = test system: DU-145

SMILES	GI50 (NCI-H460)	GI50 (SR)	GI50 (ACHN)	GI50 (CAKI-1)	GI50 (K562)	GI50 (OVCAR-4)	GI50 (SK-OV-3)	GI50 (U-251)	GI50 (SNB-75)	GI50 (NCI-H522)	GI50 (HOP-62)	GI50 (BT-549)	GI50 (RXF 393)	GI50 (SK-MEL-2)	GI50 (EKVX)	GI50 (COLO 205)	GI50 (Malme-3M)	GI50 (SN12C)	GI50 (SK-MEL-28)	GI50 (DU-145)
Cn1c(N(CCO)CCO)cnc1[N+](=O)[O-]	> 100 µM (inactive)	> 100 µM (inactive)	> 100 µM (inactive)	> 100 µM (inactive)	> 100 µM (inactive)	> 100 µM (inactive)	> 100 µM (inactive)	> 100 µM (inactive)	> 100 µM (inactive)	> 100 µM (inactive)	> 100 µM (inactive)	> 100 µM (inactive)	> 100 µM (inactive)	> 100 µM (inactive)	> 100 µM (inactive)	> 100 µM (inactive)	> 100 µM (inactive)	–	–	–
C=C1CC2[C@H](C)C(=O)CCC2(C)C2=C1C1CCC(C(C)CCC(=C)C(C)C(=O)O)C1(C)CC2=O (some centres undefined)	34.4 µM (inactive)	–	31.9 µM (inactive)	> 100 µM (inactive)	9.75 µM (inactive)	48.4 µM (inactive)	89.5 µM (inactive)	55.1 µM (inactive)	95.5 µM (inactive)	47.1 µM (inactive)	45.4 µM (inactive)	37.2 µM (inactive)	30.1 µM (inactive)	> 100 µM (inactive)	71.8 µM (inactive)	49.4 µM (inactive)	> 100 µM (inactive)	> 100 µM (inactive)	> 100 µM (inactive)	53.1 µM (inactive)
CSc1nc(C)c(CCCl)c(Cl)n1	> 100 µM (inactive)	–	> 100 µM (inactive)	> 100 µM (inactive)	31.8 µM (inactive)	> 100 µM (inactive)	> 100 µM (inactive)	> 100 µM (inactive)	> 100 µM (inactive)	20.6 µM (inactive)	> 100 µM (inactive)	87.7 µM (inactive)	> 100 µM (inactive)	–	> 100 µM (inactive)	35.2 µM (inactive)	> 100 µM (inactive)	52.6 µM (inactive)	> 100 µM (inactive)	> 100 µM (inactive)
N#C[C@H]1C(=O)C(c2nc3ccccc3[nH]2)S[C@H]1c1ccccc1 (some centres undefined)	35.1 µM (inactive)	28.8 µM (inactive)	20 µM (inactive)	38.6 µM (inactive)	35.2 µM (inactive)	34.2 µM (inactive)	47.1 µM (inactive)	22.6 µM (inactive)	–	21.2 µM (inactive)	–	26.5 µM (inactive)	19.1 µM (inactive)	–	28.9 µM (inactive)	51.5 µM (inactive)	29.9 µM (inactive)	20 µM (inactive)	54.8 µM (inactive)	45.1 µM (inactive)
NC1=CN(Cc2ccccc2)C2=N/C(=C\c3ccccc3O)C(=O)N12	> 100 µM (inactive)	–	> 100 µM (inactive)	> 100 µM (inactive)	73.3 µM (inactive)	> 100 µM (inactive)	> 100 µM (inactive)	71.6 µM (inactive)	> 100 µM (inactive)	> 100 µM (inactive)	> 100 µM (inactive)	> 100 µM (inactive)	> 100 µM (inactive)	> 100 µM (inactive)	52.1 µM (inactive)	> 100 µM (inactive)	> 100 µM (inactive)	> 100 µM (inactive)	> 100 µM (inactive)	> 100 µM (inactive)
COC(=O)c1ccccc1C1CN=NC12Cc1ccc(C)c(C)c1C2=O (centres undefined)	52.4 µM (inactive)	–	> 100 µM (inactive)	79.6 µM (inactive)	28.9 µM (inactive)	31.6 µM (inactive)	> 100 µM (inactive)	> 100 µM (inactive)	61.2 µM (inactive)	6.84 µM (inactive)	> 100 µM (inactive)	> 100 µM (inactive)	76.4 µM (inactive)	> 100 µM (inactive)	> 100 µM (inactive)	53.7 µM (inactive)	> 100 µM (inactive)	> 100 µM (inactive)	> 100 µM (inactive)	> 100 µM (inactive)
COc1cc(OC)c(-c2oc3ccccc3c(=O)c2O)c(OC)c1	3.21 µM (inactive)	3.69 µM (inactive)	> 29 µM (inactive)	5.74 µM (inactive)	2.7 µM (inactive)	0.237 µM (active)	5.94 µM (inactive)	3.84 µM (inactive)	6.01 µM (inactive)	2.75 µM (inactive)	–	1.67 µM (inactive)	2.43 µM (inactive)	–	39.4 µM (inactive)	3.08 µM (inactive)	2.86 µM (inactive)	> 100 µM (inactive)	> 22.8 µM (inactive)	–
CCOC(=O)CCC(NC(=O)C(CC(=O)OC)NC(=O)OCc1ccccc1)C(=O)NC(CC(=O)OC)C(=O)NC(CCC(=O)OCC)C(=O)NC(CC(=O)OC)C(=O)NC(CCC(=O)OCC)C(=O)NC(CC(=O)OCC)C(=O)OCC (centres undefined) (Cbz-D(OMe)E(OEt)D(OMe)E(OEt)D(OMe)E(OEt)D(OEt)-OEt; configuration not given here)	> 100 µM (inactive)	> 100 µM (inactive)	> 100 µM (inactive)	–	> 100 µM (inactive)	> 100 µM (inactive)	–	> 100 µM (inactive)	–	> 100 µM (inactive)	> 100 µM (inactive)	> 100 µM (inactive)	–	> 100 µM (inactive)	–	–	> 100 µM (inactive)	> 100 µM (inactive)	–	> 100 µM (inactive)
